Assay results reported in patent US20110045101A1, “FUNGICIDAL SUBSTITUTED AZOLES” (E.I. Du Pont De Nemours and Company, priority 2009, published 2011).
Marks after values point to notes of the source that are not given here.

Experiments:
Type in all cases: in vivo
Details in all cases: 100 = 100% disease control
[1] = test system: Puccinia recondita f. sp. tritici; experiment: Test I: wheat leaf rust on wheat seedlings, sprayed the day before inoculation, visual disease rating
Method in brief: (§1)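 Acetone solution (3% of final volume) of each compound is suspended in 50/50 acetone/water with 250 ppm Trem® 014. Plants are sprayed to run-off at 200 ppm, equivalent to 500 g/ha, or at 40 ppm for starred values.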

Botrytis cinerea = experiment: Test C: tomato Botrytis on tomato seedlings, sprayed the day before inoculation, visual disease rating
Method in brief: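 Disease ratings refer to tomato seedlings treated by run-off spraying with compound suspensions, mostly 200 ppm (500 g/ha equivalent) and in marked cases 40 ppm. Carrier: acetone/purified water 50/50 with 250 ppm polyhydric alcohol ester surfactant, after predissolving in acetone.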

Septoria tritici = experiment: Test G: wheat leaf blotch on wheat seedlings, sprayed the day before inoculation, visual disease rating
Method in brief: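 Compounds dissolved in acetone (3% of final volume), then suspended in 50/50 acetone/water with 250 ppm Trem® 014 and sprayed to run-off on seedlings at 200 ppm (≈500 g/ha) or 40 ppm where marked. Inoculation with spores followed next day; visual rating after 48 h saturated at 24° C plus 19 days at 20° C.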

Septoria nodorum = experiment: Test F: wheat glume blotch on wheat seedlings, sprayed the day before inoculation, visual disease rating
Method in brief: as §1

[2] = test system: Erysiphe graminis f. sp. tritici; experiment: Test J: wheat powdery mildew on wheat seedlings, sprayed the day before inoculation, visual disease rating
Method in brief: as §1

Alternaria solani = experiment: Test D: tomato early blight, sprayed the day before inoculation, visual disease rating
Method in brief: as §1

[3] = 200 ppm, 0 = no control relative to controls
[4] = 40 ppm (marked *), 0 = no control

SMILES: Fc1ccc(-n2c(Cl)nc(Cl)c2-c2c(F)ccc(F)c2Cl)cc1 [compound 196]
- Test I disease control rating ([1]; 200 ppm, 0 = no control): 100%
- Test C disease control rating (Botrytis cinerea; 200 ppm, 0 = no control): 99%
- Test G disease control rating (Septoria tritici; 200 ppm, 0 = no control): 92%
- Test F disease control rating (Septoria nodorum; 200 ppm, 0 = no control): 0%
- Test J disease control rating ([2]; 200 ppm, 0 = no control): 97%
- Test D disease control rating (Alternaria solani; 200 ppm, 0 = no control): 100%

SMILES: N#Cc1cc(F)c(-c2c(Cl)nc(Br)n2-c2ccc(Cl)cc2)c(F)c1 [compound 201]
- Test I disease control rating ([1]; 200 ppm, 0 = no control): 96%
- Test C disease control rating (Botrytis cinerea; 200 ppm, 0 = no control): 99%
- Test G disease control rating (Septoria tritici; 200 ppm, 0 = no control): 98%
- Test F disease control rating (Septoria nodorum; 200 ppm, 0 = no control): 100%
- Test J disease control rating ([2]; 200 ppm, 0 = no control): 100%
- Test D disease control rating (Alternaria solani; 200 ppm, 0 = no control): 100%

SMILES: CN(C)c1ncn(Cc2ccc(Cl)cc2)c1-c1c(F)cccc1F [compound 99]
- Test I disease control rating [1, 3]: 91%
- Test C disease control rating (Botrytis cinerea; [3]): 0%
- Test G disease control rating (Septoria tritici; [3]): 25%
- Test F disease control rating (Septoria nodorum; [3]): 0%
- Test J disease control rating [2, 3]: 0%
- Test D disease control rating (Alternaria solani; [3]): 0%

SMILES: Cc1ccc(F)c(-c2c(Cl)nc(Br)n2-c2ccc(Cl)cc2)c1F [compound 105]
- Test I disease control rating [1, 3]: 99%
- Test C disease control rating (Botrytis cinerea; [3]): 98%
- Test G disease control rating (Septoria tritici; [3]): 94%
- Test F disease control rating (Septoria nodorum; [3]): 94%
- Test J disease control rating [2, 3]: 100%
- Test D disease control rating (Alternaria solani; [3]): 99%

SMILES: Cc1nn(C)c(-c2c(F)cc(F)cc2F)c1-c1ccc(Cl)cc1 [compound 69]
- Test I disease control rating [1, 3]: 0%
- Test C disease control rating (Botrytis cinerea; [3]): 74%
- Test G disease control rating (Septoria tritici; [3]): 25%
- Test F disease control rating (Septoria nodorum; [3]): 0%
- Test J disease control rating [2, 3]: 97%
- Test D disease control rating (Alternaria solani; [3]): 99%

SMILES: C#Cc1nc(Cl)c(-c2c(F)cccc2F)n1-c1cccc(F)c1 [Compound 47, 4-chloro-5-(2,6-difluorophenyl)-2-ethynyl-1-(3-fluorophenyl)-1H-imidazole]
- pest or weed control at 200 ppm ([1]; Puccinia recondita, 168 h, 200 ppm, 0 = no control relative to controls): 54%
- pest or weed control at 200 ppm (Botrytis cinerea; Botrytis cinerea, 120 h, 200 ppm, 0 = no control relative to controls): 94%
- pest or weed control at 200 ppm (Septoria tritici; Zymoseptoria tritici, 504 h, 200 ppm, 0 = no control relative to controls): 77%
- pest or weed control at 200 ppm (Septoria nodorum; Parastagonospora nodorum, 264 h, 200 ppm, 0 = no control relative to controls): 0%
- pest or weed control at 200 ppm ([2]; Blumeria graminis, 168 h, 200 ppm, 0 = no control relative to controls): 93%
- pest or weed control at 200 ppm (Alternaria solani; Alternaria solani, 168 h, 200 ppm, 0 = no control relative to controls): 42%

SMILES: Cc1nc(Cl)c(-c2c(F)cccc2F)n1Cc1ccc(Cl)cc1 [compound 128]
- Test I disease control rating [1, 3]: 97%
- Test C disease control rating (Botrytis cinerea; [3]): 97%
- Test G disease control rating (Septoria tritici; [3]): 93%
- Test F disease control rating (Septoria nodorum; [3]): 96%
- Test J disease control rating [2, 3]: 100%
- Test D disease control rating (Alternaria solani; [3]): 96%

SMILES: Cc1nc(Cl)c(-c2c(F)cc(O)cc2F)n1-c1ccc(Cl)cc1 [compound 119]
- Test I disease control rating [1, 3]: 80%
- Test C disease control rating (Botrytis cinerea; [3]): 96%
- Test G disease control rating (Septoria tritici; [3]): 91%
- Test F disease control rating (Septoria nodorum; [3]): 40%
- Test J disease control rating [2, 3]: 0%
- Test D disease control rating (Alternaria solani; [3]): 80%

SMILES: COc1cc(F)c(-n2c(Br)nc(Br)c2-c2ccc(Cl)cc2)c(F)c1 [compound 242]
- Test I disease control rating [1, 4]: 89* %
- Test C disease control rating (Botrytis cinerea; [4]): 99* %
- Test G disease control rating (Septoria tritici; [4]): 95* %
- Test F disease control rating (Septoria nodorum; [4]): 51* %
- Test J disease control rating [2, 4]: 92* %
- Test D disease control rating (Alternaria solani; [4]): 95* %

SMILES: Cc1ccc(-n2c(Br)nc(Cl)c2-c2ccc(F)cc2Cl)cc1 [compound 184]
- Test I disease control rating ([1]; 200 ppm, 0 = no control): 100%
- Test C disease control rating (Botrytis cinerea; 200 ppm, 0 = no control): 99%
- Test G disease control rating (Septoria tritici; 200 ppm, 0 = no control): 97%
- Test F disease control rating (Septoria nodorum; 200 ppm, 0 = no control): 0%
- Test J disease control rating ([2]; 200 ppm, 0 = no control): 100%
- Test D disease control rating (Alternaria solani; 200 ppm, 0 = no control): 100%

SMILES: Cc1ccc(-n2c(Br)nc(Cl)c2-c2c(F)cc(F)cc2F)cc1 [compound 153]
- Test I disease control rating ([1]; 200 ppm, 0 = no control): 99%
- Test C disease control rating (Botrytis cinerea; 200 ppm, 0 = no control): 98%
- Test G disease control rating (Septoria tritici; 200 ppm, 0 = no control): 96%
- Test F disease control rating (Septoria nodorum; 200 ppm, 0 = no control): 69%
- Test J disease control rating ([2]; 200 ppm, 0 = no control): 100%
- Test D disease control rating (Alternaria solani; 200 ppm, 0 = no control): 100%

SMILES: COc1cc(F)c(-n2cnc(Cl)c2-c2ccc(Cl)cc2)c(F)c1 [compound 277]
- Test I disease control rating [1, 4]: 88* %
- Test C disease control rating (Botrytis cinerea; [4]): 99* %
- Test G disease control rating (Septoria tritici; [4]): 89* %
- Test F disease control rating (Septoria nodorum; [4]): 0* %
- Test J disease control rating [2, 4]: 94* %
- Test D disease control rating (Alternaria solani; [4]): 0* %

SMILES: COc1cc(F)c(-c2c(C)ncn2-c2ccccn2)c(F)c1 [compound 250]
- Test I disease control rating ([1]; 200 ppm, 0 = no control): 99%
- Test C disease control rating (Botrytis cinerea; 200 ppm, 0 = no control): 99%
- Test G disease control rating (Septoria tritici; 200 ppm, 0 = no control): 83%
- Test F disease control rating (Septoria nodorum; 200 ppm, 0 = no control): 0%
- Test J disease control rating ([2]; 200 ppm, 0 = no control): 94%
- Test D disease control rating (Alternaria solani; 200 ppm, 0 = no control): 100%

SMILES: Cc1ncn(-c2c(F)cc(F)cc2F)c1-c1ccc(Cl)cc1 [compound 447]
- Test I disease control rating [1, 3]: 0%
- Test C disease control rating (Botrytis cinerea; [3]): 94%
- Test G disease control rating (Septoria tritici; [3]): 30%
- Test F disease control rating (Septoria nodorum; [3]): 0%
- Test J disease control rating [2, 3]: 81%
- Test D disease control rating (Alternaria solani; [3]): 80%
